Literature values in patent US7029703B2, “Composition for promoting healthy bone structure” (Metagenics, Inc., priority 1999, dated 2006).

Columns and labels:
[1] = postmenopausal osteoporosis
[2] = 600 mg ipriflavone/day along with 1 gram calcium
[3] = in animals and in humans
[4] = clinical trials; consumption data of up to 2 years
osteoblast-like cells = details: in vitro

SMILES	rate of bone loss [1]	Urinary hydroxyproline/creatinine (HOP/Cr) [2]	serum osteocalcin (BGP) [2]	increase in BMD at the distal radius (DPA) ([2]; 28 osteoporotic elderly women, P<0.05) [%]	Bone pain (during the 1200/600 mg sequence of ipriflavone)	Serum alkaline phosphatase (ALP) decrease (following the 1200/600 mg ipriflavone sequence, P<0.01) [%]	hydroxy proline/creatinine (HOP/Cr) decrease (following the 1200/600 mg ipriflavone sequence, P<0.05) [%]	estrogenic activity [3]	frequency of adverse reactions [4]	alkaline phosphatase activity (osteoblast-like cells)	collagen synthesis (osteoblast-like cells)
O=C([O-])[O-].[Ca+2] [calcium carbonate]	reduced the rate of bone loss by about half										
CC(C)Oc1ccc2c(=O)c(-c3ccccc3)coc2c1 [ipriflavone, 7-isopropoxyisoflavone]		reduced	reduced	6	significantly decreased	33	24.1	devoid of any estrogenic activity	equal to that observed during administration of a placebo	increases	increases
